Where a SMILES comes first, the peptide text is derived from it.
Columns and labels:
[1] = target: T1, immobilized peptide fragment corresponding to the region 1-16 of the amyloid-β peptide (Homo sapiens, UniProt P05067); test: SPR binding (BIACORE T100), Example 3, in the absence of zinc; details: for Kd: BIACORE T100, no zinc, at least 99% L isomers, read-out: dissociation constant Kd (Example 3)
T1 construct: N-terminal acetyl cap (Ac); C-terminal amide cap (NH2)
Excerpt: The binding tests described in Example 1 were reproduced, with the same materials, reactives and procedures except for the following significant differences: • the BIACORE apparatus applied was the BIACORE T100 apparatus. This BIACORE T100 apparatus produces more accurate results than the BIACORE 3000 because it includes a degasification system upon injecting the analyte on the sensor and because the method for detecting immobilized ligand/analyte intermolecular complexes on the CM5 chip is more accurate. • the tetrapeptides according to the invention used were purified to at least 99% in L isomers according to HPLC data, the D isomers were prevented from forming and/or removed during the synthesis. In Example 1, the tetrapeptides only included 98% of L isomers. • the concentrations of the tetrapeptides according to the invention applied were 50; 100; 200; 500; 1,000; 1,500 and 2,000 μM. • these experiments were conducted in the absence of zinc. • the surface of the CM5 chips provided a surface which gave a variation of response units (RU) of about 1,023 arbitrary units, with a control liquid sample.
the dissociation constant Kd being given by the formula Kd=koff/kon.

[2] = target: T2, Aβ peptide (1-40) (Homo sapiens, UniProt P05067); test: Aβ aggregation on SYNTHALOID SCREENING PLATE kit (fluorescence); assay type: biochemical; details: for IC50: 100 nM marked Aβ (1-40), 3 hours at room temperature, buffer with physiological Zn(II), read-out: inhibitory concentration IC50 of aggregation of the Aβ peptide; for effect of prolonged incubation on amyloid aggregates: incubation for at least 1 hour, 20, 40, 80, 100 and 150 μM
T2 construct: The complete β peptide 1-40 was used, marked by a fluorescent marker; purchased QUALITY CONTROLLED BIOCHEMICALS Inc. USA
Description: They were left to incubate for 3 hours at room temperature in the wells.
In certain wells, tetrapeptides AC-HAEE-NH2 and Ac-RADD-NH2 according to the invention, were introduced at different concentrations depending on the wells (0, 5, 10, 20, 40, 80, 100 and 150 μM), for checking the effect of tetrapeptides according to the invention on the aggregation phenomenon of Aβ peptides.
To do this, at the end of the incubation, the unbound proteins in the wells were removed with three washings, by using the buffer solution above. The amount of bound proteins in the form of aggregates, bound to the well, was measured by measuring the fluorescence intensity.

[3] = target: T3, immobilized peptide fragment corresponding to the 1-16 region of the amyloid-β peptide (Homo sapiens, UniProt P05067); test: SPR binding (BIACORE 3000), Examples 1 and 2
T3 construct: N-terminal acetyl cap (Ac); C-terminal amide cap (NH2)
T3 sequence (P05067 with tags, fused parts or gaps limits assumed): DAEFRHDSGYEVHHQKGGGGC
Description: With this analysis, it is possible to calculate the dissociation constant Kd of the interaction of the peptide with the immobilized ligand, it being understood that the value of Kd is all the more smaller since the interaction with the ligand and therefore the stability of the formed interaction complex are high.
More specifically, in an SPR spectroscopy system, for example applying a biosensor from BIACORE, after immobilization of the ligand at the surface of a sensor of the chip type, in this case here the amyloid-β fragment, the analyte reagent is injected on said surface at a constant flow rate through systems of microfluidic channels. Polarized light emitted by a light source is reflected on the gold-covered surface of the chip, and then detected by a diode reader. According to the binding of the ligand and of the analyte molecule, the intensity of the reflected light is different. The variation in the response of the spectrometer (RU=Response unit) allows calculation of the dissociation constant of the interaction.
The chips of the biosensor came from GE Healthcare (USA). The SPR spectroscopy experiments were conducted with the BIACORE 3000 apparatus. The reagents for immobilizing the amyloid-β peptide fragment (EDC, NHS, PDEA and cysteine) were bought from GE Healthcare (USA). The buffer used for immobilizing the peptide ligand by formation of thiol bonds was 10 mM sodium acetate at pH 4.5. The regeneration buffer was an HBS buffer containing a medium with 10 mM HEPES and 3 mM EDTA, 0.005% of surfactant P20 and 150 mM NaCl at pH 7.4. […] All the buffers were filtered before use.
This peptide with 21 amino acids contains the 16 amino acids of the N-terminal end of the binding domain of the amyloid-β, i.e. [sequence] (SEQ. ID. NO.25), followed by 4 glycine amino acids and a cysteine C-Terminal end. Cysteine is necessary for immobilizing the ligand on the surface of the chip through a thiol bond according to the procedure of the supplier. 4 glycine amino acids therefore form a binding tetrapeptide (“linker”) between the chip and the ligand. Further, the thereby immobilized ligand has enough flexibility relatively to the surface, so as to validly mimic the interaction conditions between the tetrapeptide reagent and the ligand. This ligand was bound onto a CM5 chip of the biosensor, by following the standard procedure through a thiol bond under conditions described in the handbook of the sensor provided by the supplier GE Healthcare (USA).
The flow rate applied in all the steps was 5 μl/min. The carboxymethyl dextran matrix was activated by injecting a 1:1 mixture of 1-ethyl-3(3-dimethylaminopropyl)-carbodiimide (EDC) and of N-hydroxysuccinimide (NHS), i.e. 30 μl of EDC at 400 mM and NHS at 100 mM, followed by an injection of 80 mM PDEA (2-(2-pyridinyldithio)-ethane-amine) in solution in 0.1 M sodium borate at a pH of 8.5. The peptide ligand in solution in a sodium acetate buffer in an amount of 0.05 mg/ml was then injected. […] The control liquid was reacted with the surface of the chip according to the same procedure.
The surface of the chip was exposed for 330 seconds to the reagent buffer solution in order to track its binding. The surface of the chip was then regenerated by injecting a regeneration buffer (20 μL). The data of the control lane were subtracted from raw data of the lane corresponding to the immobilized reagent peptides.

T2 sequence (P05067 672-711 limits assumed): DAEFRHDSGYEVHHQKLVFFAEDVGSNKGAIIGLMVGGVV

Structure (SMILES)	koff [1] [s⁻¹]	kon [1] [M⁻¹ s⁻¹]	IC50 [2] [mM]	effect of prolonged incubation on amyloid aggregates [2]	Kd [1] [mM]	Kd ([3]; BIACORE 3000, peptides with Ra=Ac, Rb=NH2, 98% L isomers, read-out: dissociation constant Kd) [nM]	interactions of the ligand with the reagent at high concentrations of Zn(II) ions ([3]; Zn(II) 10 mM)	dissociation constant in the presence of physiological concentrations of Zn(II) ions ([3]; Zn(II) 100-400 μM)	interactions with the 1-16 domain of Aβ at higher concentrations of Zn(II) ions ([3]; Zn(II) of the order of 1 millimolar (mM))	binding to the 1-16 domain of the amyloid-β in the presence or absence of Zn(II) ions ([3]; physiological Zn(II), micromolar levels (less than 500 μM))
CC(=O)N[C@@H](Cc1c[nH]cn1)C(=O)N[C@@H](C)C(=O)N[C@@H](CC(=O)O)C(=O)N[C@@H](CC(=O)O)C(N)=O [SEQ. ID. NO. 1, HADD] (Ac-HADD-NH2)	0.0104 ± 2e-05	3.2 ± 0.08	–	–	–	–	–	–	–	–
CC(=O)N[C@@H](CCCNC(=N)N)C(=O)N[C@@H](C)C(=O)N[C@@H](CC(=O)O)C(=O)N[C@@H](CC(=O)O)C(N)=O [SEQ. ID. NO. 5, Ac-RADD-NH2] (Ac-RADD-NH2)	0.00024 ± 4e-05	18.5	0.02	irreversible disaggregation	–	–	–	–	–	–
CC(=O)N[C@@H](CCCCN)C(=O)N[C@@H](C)C(=O)N[C@@H](CCC(=O)O)C(=O)N[C@@H](CC(=O)O)C(N)=O [SEQ. ID. NO. 9, KAED] (Ac-KAED-NH2)	0.019 ± 0.001	5.7 ± 0.9	–	–	1 to 10	–	–	–	–	–
CC(=O)N[C@@H](Cc1c[nH]cn1)C(=O)N[C@@H](C)C(=O)N[C@@H](CCC(=O)O)C(=O)N[C@@H](CCC(=O)O)C(N)=O [SEQ. ID. NO. 19, Ac-HAEE-NH2] (Ac-HAEE-NH2)	3.5e-05 ± 8e-06	0.37 ± 0.05	0.02	irreversible disaggregation	–	22	suppressed the interactions	practically unchanged	suppress the interactions	practically not altered
CC(=O)N[C@@H](CC(=O)O)C(=O)N[C@@H](CC(=O)O)C(=O)N[C@@H](C)C(=O)N[C@@H](CCCCN)C(N)=O [SEQ. ID. NO. 4, DDAK] (Ac-DDAK-NH2)	0.0062 ± 0.0001	4.57 ± 0.09	–	–	1 to 10	–	–	–	–	–
CC(=O)N[C@@H](CCCCN)C(=O)N[C@@H](C)C(=O)N[C@@H](CC(=O)O)C(=O)N[C@@H](CCC(=O)O)C(N)=O [SEQ. ID. NO. 15, KADE] (Ac-KADE-NH2)	0.0096 ± 0.0002	2.2 ± 0.1	–	–	1 to 10	–	–	–	–	–
CC(=O)N[C@@H](CC(=O)O)C(=O)N[C@@H](CCC(=O)O)C(=O)N[C@@H](C)C(=O)N[C@@H](CCCNC(=N)N)C(N)=O [SEQ. ID. NO. 12, DEAR] (Ac-DEAR-NH2)	0.00709 ± 9e-05	3.58 ± 0.08	–	–	1 to 10	–	–	–	–	–
CC(=O)N[C@@H](CCCNC(=N)N)C(=O)N[C@@H](C)C(=O)N[C@@H](CCC(=O)O)C(=O)N[C@@H](CCC(=O)O)C(N)=O [SEQ. ID. NO. 23, RAEE] (Ac-RAEE-NH2)	0.0112 ± 8e-05	1.5 ± 0.1	–	–	1 to 10	–	–	–	–	–

Source: patent publication US9334303B2, “Peptide compound useful for inhibiting amyloid plaque formation” (KIMONELLA VENTURES LTD., priority 2010, dated 2016)
